{"source": "paper PMC11400957", "about": "(The Journal of Biological Chemistry, 2024)", "target": "IpaD^WT (full-length) (Shigella flexneri, UniProt P18013)", "sequence (P18013 whole entry)": "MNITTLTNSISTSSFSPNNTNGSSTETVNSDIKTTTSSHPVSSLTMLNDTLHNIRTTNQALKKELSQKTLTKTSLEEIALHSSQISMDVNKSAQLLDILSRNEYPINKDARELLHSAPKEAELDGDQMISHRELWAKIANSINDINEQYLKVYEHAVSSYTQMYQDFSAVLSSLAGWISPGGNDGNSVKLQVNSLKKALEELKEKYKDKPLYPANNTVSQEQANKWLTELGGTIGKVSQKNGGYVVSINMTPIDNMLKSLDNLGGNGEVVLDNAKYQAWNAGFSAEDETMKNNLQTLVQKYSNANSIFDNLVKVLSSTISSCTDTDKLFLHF", "assay": "CD thermal unfolding at […] nm", "type": "binding", "settings": "1 mM DOC, PBS pH 7.4, 0.5 mg/ml protein; absolute Tm with ligand, not a shift; nonspecific detergent effect not excluded"}
{"smiles": "C[C@H](CCC(=O)O)[C@H]1CC[C@H]2[C@@H]3CC[C@@H]4C[C@H](O)CC[C@]4(C)[C@H]3C[C@H](O)[C@]12C", "note": "[deoxycholate]", "values": [{"measurement": "Tm ^b (°C ± SD) / +DOC", "value": "77 ± 1", "unit": "°C"}]}
